One test concerns the target T1, histamine-3 receptors (H3 receptor) (Rattus norvegicus, UniProt Q9QYN8).
T1 construct: from tissue; host or cells: male Sprague-Dawley rat brain cortex membranes
As to the kind of experiment: (3H)-N-α-methylhistamine binding to rat cortical membranes.
Conditions: not given
The method, then: Briefly, male Sprague-Dawley rat brain cortices were homogenized (1 g tissue/10 mL buffer) in 50 mM Tris-HCl/5 mM EDTA containing protease inhibitor cocktail (Calbiochem) using a polytron set at 20,500 rpm. Homogenates were centrifuged for 20 minutes at 40,000×g. The supernatant was decanted, and pellets were weighed. The pellet was resuspended by polytron homogenization in 40 mL 50 mM Tris-HCl/5 mM EDTA with protease inhibitors and centrifuged for 20 minutes at 40,000×g. […] Rat cortical membranes (12 mg wet weight/tube) were incubated with (^3H)-N-α-methylhistamine (˜0.6 nM) with or without H3 receptor antagonists in a total incubation volume of 0.5 mL of 50 mM Tris-HCl/5 mM EDTA (pH 7.7). Test compounds were dissolved in DMSO to provide a 20 mM solution, serially diluted and then added to the incubation mixtures prior to initiating the incubation assay by addition of the membranes. Thioperamide (3 μM) was used to determine nonspecific binding. Binding incubations were conducted for 30 minutes at 25° C. and terminated by addition of 2 mL of ice cold 50 mM Tris-HCl (pH 7.7) and filtration through 0.3% polyethylenimine-soaked Unifilter plates (Packard). These filters were washed 4 additional times with 2 mL of ice-cold 50 mM Tris-HCl and dried for 1 hour. Radioactivity was determined using liquid scintillation counting techniques. Results were analyzed by Hill transformation and Ki values were determined using the Cheng-Prusoff equation.
T1 sequence (Q9QYN8 whole entry): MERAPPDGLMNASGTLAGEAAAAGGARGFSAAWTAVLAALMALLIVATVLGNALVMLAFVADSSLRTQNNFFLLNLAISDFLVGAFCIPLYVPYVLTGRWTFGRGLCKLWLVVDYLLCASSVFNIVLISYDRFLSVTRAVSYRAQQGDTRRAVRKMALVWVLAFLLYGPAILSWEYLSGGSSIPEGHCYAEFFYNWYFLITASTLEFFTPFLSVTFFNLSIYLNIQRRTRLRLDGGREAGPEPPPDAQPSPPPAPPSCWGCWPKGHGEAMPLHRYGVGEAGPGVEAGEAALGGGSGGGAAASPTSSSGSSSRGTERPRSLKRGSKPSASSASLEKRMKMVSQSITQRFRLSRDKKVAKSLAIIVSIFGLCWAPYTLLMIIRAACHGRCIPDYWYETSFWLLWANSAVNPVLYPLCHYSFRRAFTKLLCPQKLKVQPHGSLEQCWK
Broadly, the Ki is a dissociation constant, usually derived from enzyme kinetics or from competition with a known ligand. Turning to `CN(C)[C@@H]1CCN(CCc2cc3cc(-c4ccc(C#N)cc4)ccc3o2)C1` [Example 66, 4-(2-{2-[(3R)-3-(dimethylamino)pyrrolidinyl]ethyl}-1-benzofuran-5-yl)benzonitrile], the Ki is 90.4 nM.

Staying with this test, now noted: male Sprague-Dawley rat brain cortical membranes; (3H)-N-α-methylhistamine ~0.6 nM; 30 minutes at 25° C.; Cheng-Prusoff equation; read-out: Ki.
For the molecule `CCN(CC)CCc1c(C)c2cc(-c3ccc(C#N)cc3)ccc2oc1=O` [Example 43, 4-{3-[2-(diethylamino)ethyl]-4-methyl-2-oxo-2H-chromen-6-yl}benzonitrile], the Ki is 14.6 nM.

In the case of `O=C(c1ccc(-c2ccc3oc(CCN4CC=CCC4)cc3c2)cc1)N1CCOCC1` [Example 33, 4-(4-{2-[2-(3,6-dihydro-1(2H)-pyridinyl)ethyl]-1-benzofuran-5-yl}benzoyl)morpholine], the inhibition constant (Ki) amounted to 32.3 nM.

`C[C@@H]1CC[C@@H](C)N1CCc1cc2cc(-c3ccc(C#N)cc3)ccc2o1` [Example 12, 4-(2-{2-[(2R,5R)-2,5-dimethylpyrrolidinyl]ethyl}-1-benzofuran-5-yl)benzonitrile]: the Ki is 38.4 nM.

Turning to `C[C@@H]1CCCN1CCc1cc2cc(C(=O)c3ccc(N(C)C)cc3)ccc2o1` [Example 79, [4-(dimethylamino)phenyl](2-{2-[(2R)-2-methyl-1-pyrrolidinyl]ethyl}-1-benzofuran-5-yl)methanone], the Ki was determined as 3.8 nM.

Consider `CCN(CCc1cc2cc(-c3ccc(C(=O)N4CCOCC4)cc3)ccc2o1)C(C)C` [Example 38, N-ethyl-N-isopropyl-N-(2-{5-[4-(4-morpholinylcarbonyl)phenyl]-1-benzofuran-2-yl}ethyl)amine], for which the Ki amounted to 26 nM.

In the case of `CCCNCCc1cc2cc(-c3ccc(C(=O)N4CCOCC4)cn3)ccc2o1` [Example 65, N-(2-{5-[5-(4-morpholinylcarbonyl)-2-pyridinyl]-1-benzofuran-2-yl}ethyl)-N-propylamine], the Ki was 596 nM.

Take “4-[4-(2-{2-[(2R,6S)-2,6-dimethylpiperidinyl]ethyl}-1-benzofuran-5-yl)benzoyl]morpholine [Example 29]”: the Ki is 8.46 nM.

Turning to `N#Cc1ccc(-c2ccc3oc(CCN4CC[C@@H](O)C4)cc3c2)cc1` [Example 7, 4-(2-{2-[(3R)-3-hydroxypyrrolidinyl]ethyl}-1-benzofuran-5-yl)benzonitrile], the inhibitory constant (Ki) worked out at 94.9 nM.

Turning to `CC1CCCCN1CCc1cc2cc(-c3ccc(C(=O)N4CCOCC4)cc3)ccc2o1` (centres unmarked) [Example 26, 4-(4-{2-[2-(2-methyl1--piperidinyl)ethyl]-1-benzofuran-5-yl}benzoyl)morpholine], the Ki came to 27.2 nM.

Turning to `CC1CCN(CCc2cc3cc(-c4ccc(C#N)cc4)ccc3o2)CC1` [Example 14, 4-{2-[2-(4-methyl-1-piperidinyl)ethyl]-1-benzofuran-5-yl}benzonitrile], the Ki came out at 25.1 nM.

For `O=C(c1ccc(-c2ccc3oc(CCN4CCCC4)cc3c2)nc1)N1CCOCC1` [Example 44, 4-[(6-{2-[2-(1-pyrrolidinyl)ethyl]-1-benzofuran-5-yl}-3-pyridinyl)carbonyl]morpholine], the Ki was determined as 17.2 nM.

Turning to `C[C@@H]1CCCN1CCc1cc2cc(C(=O)c3ccccc3)ccc2o1` [Example 84, (2-{2-[(2R)-2-methyl-1-pyrrolidinyl]ethyl}-1-benzofuran-5-yl)(phenyl)methanone], the inhibition constant Ki is 2.8 nM.

For the molecule `C[C@@H]1CCCN1CCc1cc2cc(C(=O)C3CC3)ccc2o1` [Example 75, cyclopropyl(2-{2-[(2R)-2-methyl-1-pyrrolidinyl]ethyl}-1-benzofuran-5-yl)methanone], the Ki was 9.9 nM.

As to `CC(C)N(C)CCc1cc2cc(-c3ccc(C(=O)N4CCOCC4)cc3)ccc2o1` [Example 36, N-isopropyl-N-methyl-N-(2-{5-[4-(4-morpholinylcarbonyl)phenyl]-1-benzofuran-2-yl}ethyl)amine], the Ki was 52.1 nM.

As to `CSc1ccc(C(=O)c2ccc3oc(CCN4CCC[C@H]4C)cc3c2)cc1` [Example 78, (2-{2-[(2R)-2-methyl-1-pyrrolidinyl]ethyl}-1-benzofuran-5-yl)[4-(methylthio)phenyl]methanone], the Ki turned out to be 8.2 nM.

In the case of `COc1ccccc1C(=O)c1ccc2oc(CCN3CCC[C@H]3C)cc2c1` [Example 82, (2-methoxyphenyl)(2-{2-[(2R)-2-methyl-1-pyrrolidinyl]ethyl}-1-benzofuran-5-yl)methanone], the Ki came to 1.6 nM.

For `CC(C)N(C)CCc1cc2cc(-c3ccc(C#N)cc3)ccc2o1` [Example 19, 4-(2-{2-[isopropyl(methyl)amino]ethyl}-1-benzofuran-5-yl)benzonitrile], the Ki amounted to 77.7 nM.

For `O=C(c1ccc(-c2ccc3oc(CCN4CC[C@@H](O)C4)cc3c2)cc1)N1CCOCC1` [Example 27, (3R)-1-(2-{5-[4-(4-morpholinylcarbonyl)phenyl]-1-benzofuran-2-yl}ethyl)-3-pyrrolidinol], the Ki was 55.4 nM.

On to `CCN(CC)CCc1cc2cc(-c3ccc(C(=O)N4CCOCC4)cc3)ccc2o1` [Example 25, N,N-diethyl-N-(2-{5-[4-(4-morpholinylcarbonyl)phenyl]-1-benzofuran-2-yl}ethyl)amine], for which the Ki came to 14.4 nM.

In the case of `COc1ccc(C(=O)c2ccc3oc(CCN4CCC[C@H]4C)cc3c2)cc1` [Example 73, (4-methoxyphenyl)(2-{2-[(2R)-2-methyl-1-pyrrolidinyl]ethyl}-1-benzofuran-5-yl)methanone], the Ki is 2.9 nM.

Consider `C=CCNCCc1cc2cc(-c3ccc(C(=O)N4CCOCC4)cn3)ccc2o1` [Example 63, N-allyl-N-(2-{5-[5-(4-morpholinylcarbonyl)-2-pyridinyl]-1-benzofuran-2-yl}ethyl)amine], for which the Ki came to 1000 nM.

`O=C(c1ccc(-c2ccc3oc(CCN4CCC5(CC4)OCCO5)cc3c2)nc1)N1CCOCC1` [Example 60, 8-(2-{5-[5-(4-morpholinylcarbonyl)-2-pyridinyl]-1-benzofuran-2-yl}ethyl)-1,4-dioxa-8-azaspiro[4.5]decane]: the Ki was determined as 1000 nM.

For the origin of these results see patent US20020183309A1, “Novel amines as histamine-3 receptor ligands and their therapeutic applications” (priority 2001, published 2002).
